Data: article PMC7934871 (JCI Insight, 2021)

Assays:
HCT116 cells = type: cell-based, human
Protocol: Bis-(1,3-Dibutylbarbituric Acid) Trimethine Oxonol [DiBAC4(3)]
Supplemental Figure 3 (related to Figure 1). The potential mechanism of PS-oligo
mediated cell penetration.
penetration was assessed by flow cytometry. SD is shown. Unpaired student t-test. ****
P< 0.001. Data shown is the representative of 3 independent experiments.
(B) HCT116 cells were pre-treated with a variety of endocytosis inhibitors prior to
treating with FAM-labeled PS-acet.-STAT3 peptide. The graph represents the statistical
analysis of the fluorescence intensity (M.F.I) of FAM-labeled peptide shown in A. SD is
shown. n= 5 independent experiments. Unpaired student t-test. **** P< 0.001.
(C) Polarization of cell membrane contributes to penetration of PS-acet.-STAT3
peptide. Cell membrane was depolarized by adding 120 mM KCl to HCT116 for 2.5 h,
followed by incubation with the peptide (upper panel). Data is representative of 4
independent experiments. Depolarization of the cell membrane was confirmed by
applying 2.5 mM DiBAC4(3) to other cells (lower panel). n= 3 independent experiments.
Penetration was assessed by flow cytometry. The right panels show the mean of
fluorescence intensity (M.F.I) quantified by FlowJo software. SD is shown. Unpaired
student t-test. *, P<0.05; *** P< 0.005.
Aftabizadeh and Li et al., Figure S3

STAT1 = target: T1, STAT1 (Homo sapiens, UniProt P42224); test: Immunoprecipitation and Western blotting, STAT1; type: binding; settings: immunoprecipitation, Western blotting, U251 cells
T1 construct: endogenous in cells; host or cells: U251
Text: (§1) Figure 2 PS-acet.-STAT3-peptide specifically binds STAT3 in the nucleus. (A) Penetration of PS-acet.-STAT3 peptide and its colocalization with STAT3 protein in U251 cells are confirmed by confocal microscopy. Scale bars: 50 μm. Insets: original magnification, ×40. (B) PS-acet.-STAT3 peptide specifically binds to STAT3 protein, not STAT1 and STAT5 proteins, shown in U251 cells by immunoprecipitation followed by Western blotting (left panel). Expression of total STAT1, STAT3, and STAT5 was confirmed by Western blotting in U251 cells (input protein level, right panel).
(§2) Whole cell lysates or tissue homogenates were prepared by using RIPA lysis buffer (50 mM Tris at pH 7.4, 150 mM NaCl, 1 mM EDTA, 0.5% NP-40, 1 mM NaF, 15% glycerol, and 20 mM β-glycerophosphate). […] Protein amounts were determined by BCA using a Thermo Fisher Scientific kit. […] The protein levels for STAT1 (sc-346, E-23), STAT3 (sc-482, C-20), STAT5 (sc-74442, A-9), Crm1 (exportin 1) (sc-5595, H-300), CAS (exportin 2) (sc-271537, H-2), exportin 5 (sc-66885, H-300), and exportin 7 (sc-98639, H-82) were determined using antibodies from Santa Cruz Biotechnology Inc. Anti–exportin 3 (exportin T, 630622, LOS1 05-1525), anti–exportin 4 (3499-1), and anti–exportin 6 (11408-1-AP) were from MilliporeSigma, Epitomics, and Proteintech, respectively. […]

STAT5 = test: Immunoprecipitation and Western blotting, STAT5; type: binding, human; settings: immunoprecipitation, Western blotting, U251 cells
Text: as §1, §2

[1] = tested on: CRC patient primary tumor spheres
Protocol: TAMRA-acet.-STAT3 (red fluorescence) and PO-FAM-acet.-STAT3 (green fluorescence)
peptides were incubated with patient primary tumor sphere for 4 hours and the cell penetration
was visualized by confocal microscopy. Scale bar: 50 µm.
(D) The primary CRC tumor cells derived from PDX were treated with different concentrations of
PO- or PS-acet.-STAT3 peptide as indicated for 3 days. The cell viability was measured by
CellTiter Glo assay and normalized with vehicle (HBSS) treatment. Data represent 3
independent experiments (n=3). SD is shown. Unpaired Student’s t-test ****; P< 0.001; **, P<
(E) Gene expression of MYC, MMP9 and BIRC5 was detected by qPCR and normalized with
ACTB after vehicle, 1 µM of PO-or PS-acet.-STAT3 peptide treatment with CRC PDX tumor
cells. Data represent 3 independent experiments (n=3). SD is shown. One-way ANOVA. ****; P<

STAT3 = STAT3 (Homo sapiens, UniProt P40763); test: STAT3 protein stability after cycloheximide; type: cell-based; set-up: protein stability of STAT3 in HCT 116 cells; endogenous in cells; host or cells: HCT116; settings: HCT116, 1 µM peptide pre-incubated 2 hours, 0-2 hours, Western blotting, n = 3
Protocol: (H) The protein stability of STAT3 in HCT 116 cells was measured at different time points as indicated following cycloheximide (CHX) treatment. The cells were pre-incubated with 1 µM of PS-acet.-STAT3 pept. for 2 hours before adding […] of CHX. The protein level of STAT3 was detected by Western blotting. The quantification was analyzed by protein band intensity od STAT3 and actin by ImageJ software. n= 3 independent experiments. SD is shown. Two-way ANOVA; ns, not significant.
Aftabizadeh et and Li al., Figure S5

Sequence of STAT3 (P40763 whole entry): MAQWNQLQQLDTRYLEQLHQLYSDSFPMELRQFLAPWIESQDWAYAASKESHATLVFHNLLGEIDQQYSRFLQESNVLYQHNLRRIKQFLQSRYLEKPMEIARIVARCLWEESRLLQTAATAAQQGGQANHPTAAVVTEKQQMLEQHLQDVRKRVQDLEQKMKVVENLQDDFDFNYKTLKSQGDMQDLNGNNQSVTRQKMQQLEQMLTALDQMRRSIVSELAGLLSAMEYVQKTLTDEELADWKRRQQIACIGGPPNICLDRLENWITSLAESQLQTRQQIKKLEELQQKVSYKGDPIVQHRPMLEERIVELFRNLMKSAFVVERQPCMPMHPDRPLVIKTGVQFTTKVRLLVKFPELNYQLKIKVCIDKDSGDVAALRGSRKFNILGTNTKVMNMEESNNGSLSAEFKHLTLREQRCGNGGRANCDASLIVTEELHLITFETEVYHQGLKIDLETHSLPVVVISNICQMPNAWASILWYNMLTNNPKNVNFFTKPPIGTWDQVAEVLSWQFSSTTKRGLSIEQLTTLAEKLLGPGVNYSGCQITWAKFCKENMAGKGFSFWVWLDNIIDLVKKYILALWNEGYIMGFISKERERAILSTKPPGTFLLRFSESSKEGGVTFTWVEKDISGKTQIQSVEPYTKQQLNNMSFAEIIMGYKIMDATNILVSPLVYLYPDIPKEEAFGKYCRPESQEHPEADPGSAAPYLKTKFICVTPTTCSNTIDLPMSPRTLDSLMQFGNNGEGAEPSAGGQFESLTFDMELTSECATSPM
T1 sequence (P42224 whole entry): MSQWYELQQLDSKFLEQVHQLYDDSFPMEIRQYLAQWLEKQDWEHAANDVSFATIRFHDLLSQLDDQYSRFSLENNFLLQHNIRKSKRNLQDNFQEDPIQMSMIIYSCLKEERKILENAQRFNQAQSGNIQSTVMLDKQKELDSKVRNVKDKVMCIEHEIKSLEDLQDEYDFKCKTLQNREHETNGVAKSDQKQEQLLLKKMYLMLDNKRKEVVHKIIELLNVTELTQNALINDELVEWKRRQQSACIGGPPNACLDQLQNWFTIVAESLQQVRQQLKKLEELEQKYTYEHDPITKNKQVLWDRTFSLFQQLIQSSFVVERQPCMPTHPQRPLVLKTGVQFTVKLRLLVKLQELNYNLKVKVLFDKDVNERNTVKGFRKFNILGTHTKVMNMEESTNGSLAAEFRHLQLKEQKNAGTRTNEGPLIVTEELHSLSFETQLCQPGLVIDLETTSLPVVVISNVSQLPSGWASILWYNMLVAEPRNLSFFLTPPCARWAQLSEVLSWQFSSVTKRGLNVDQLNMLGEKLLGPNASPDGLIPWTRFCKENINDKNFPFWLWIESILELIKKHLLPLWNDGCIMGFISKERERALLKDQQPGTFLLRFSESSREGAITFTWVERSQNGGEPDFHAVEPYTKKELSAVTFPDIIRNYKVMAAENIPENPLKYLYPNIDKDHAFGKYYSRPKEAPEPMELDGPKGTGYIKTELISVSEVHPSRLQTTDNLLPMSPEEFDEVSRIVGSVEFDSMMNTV

Substance: PDIPKEEAFGK685(Ac)YCRPESQEHPC-linker-T*C*C*A*T*G*A*G*C*T*T*C*C*T*G*A*T*G*C*T [PS-acet.-STAT3 peptide]
- peptide penetration in presence of dextran sulfate (HCT116 cells): partially
- binding to STAT1 protein (STAT1): not
- binding to STAT5 protein (STAT5): not
- effects on cell proliferation and gene expression of STAT3 target genes in patient primary tumor spheres ([1]; 3 days, CellTiter Glo, 1 µM, qPCR of MYC, MMP9, BIRC5, n = 3): significant inhibitory effects
- cell permeability in patient primary tumor spheres ([1]; not told): high cell permeability
- protein stability of STAT3 (STAT3): not affected
